Measured values published in patent US20090264421A1 (priority 2007, published 2009).
pIC50: −log10 of the molar value.

Columns and labels:
[1] = molecular target: T1, thioredoxin (Escherichia coli, UniProt P0AA25); assay: Thioredoxin activity assay (insulin precipitation); format: biochemical, E. coli; details: higher chaetocin concentrations; read-out: IC50, Trx activity inhibition
T1 construct: purchased Promega (Madison, Wis.)
Protocol: HeLa cells were obtained from ATCC.
Thioredoxin Activity Assay: The 100 μL reaction contained 100 mM potassium phosphate (pH 7.0), 2 mM EDTA, 0.13 mM bovine insulin, 3.9 μM E. coli thioredoxin and chaetocin as indicated. The reaction was initiated by addition of 0.33 mM DTT, and turbidity was monitored at 620 nm in a plate reader. The initial linear rate was calculated based on the slope of the line after an increase in absorbance (indicating precipitation of insulin) started to occur.

[2] = test system: normal plasma cells; assay: Survival of normal plasma cells and matched normal leucocytes, trypan blue exclusion; format: cell-based, human; details: 24 h exposure
Protocol: A and B. Effects of chaetocin on survival of MGUS plasma cells and matched patient normal leucocytes from two patients (assessed by trypan blue exclusion assay, 24 h chaetocin exposures). C and D. Effects of chaetocin on survival of normal plasma cells and matched patient normal leucocytes from two patients (assessed by trypan blue exclusion assay, 24 h chaetocin exposures).

T1 sequence (P0AA25 whole entry): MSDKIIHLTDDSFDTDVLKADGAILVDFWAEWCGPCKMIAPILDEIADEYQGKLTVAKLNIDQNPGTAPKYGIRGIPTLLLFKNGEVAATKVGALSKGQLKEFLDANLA

## CN1C(=O)[C@@]23C[C@]4([C@]56C[C@@]78SS[C@@](CO)(C(=O)N7[C@H]5Nc5ccccc56)N(C)C8=O)c5ccccc5N[C@@H]4N2C(=O)[C@]1(CO)SS3 [chaetocin]
[1]
  pIC50: ~4.05
[2]
  effect on granulocytes and other leukocytes: largely sparing granulocytes and other leukocytes
